Reference: patent US6613747B2, “6-O-carbamoyl ketolide antibacterials” (Ortho-McNeil Pharmaceutical, Inc., priority 2000, dated 2003)
In brackets after ≈: the same amount, converted by molar mass.

Assays:
Experiment in all cases: MIC, microdilution broth method (NCCLS)
Assay type in all cases: cell-based
[1] = system: S. aureus ATCC29213; conditions: B: S. aureus ATCC29213, 35° C., 16-20 hours
How it was run: (§1)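 NCCLS M7-A4 broth microdilution using two-fold serial drug dilutions in cation-adjusted Mueller-Hinton broth, with inoculum ~5×10^4 CFU/well. Trays were incubated at 35 °C for 16–20 h, and growth was compared against compound-free controls.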

[2] = system: H. influenzae ATCC49247; conditions: E: H. influenzae ATCC49247, 35° C., 16-20 hours
How it was run: as §1

[3] = system: E. coli OC2605; conditions: A: E. coli OC2605, 35° C., 16-20 hours
How it was run: as §1

[4] = system: E. faecalis ATCC29212; conditions: C: E. faecalis ATCC29212, 35° C., 16-20 hours
How it was run: as §1

[5] = system: S. pneumoniae ATCC49619; conditions: D: S. pneumoniae ATCC49619, 35° C., 16-20 hours
How it was run: as §1

| SMILES | MIC [1] [µg/mL] | MIC [2] [µg/mL] | MIC [3] [µg/mL] | MIC [4] [µg/mL] | MIC [5] |
| --- | --- | --- | --- | --- | --- |
| CC[C@H]1OC(=O)[C@H](C)C(=O)[C@H](C)[C@@H](O[C@@H]2O[C@H](C)C[C@H](N(C)C)[C@H]2O)[C@](C)(OC(=O)NCCN2C(=O)c3ccccc3C2=O)C[C@@H](C)C(=O)[C@H](C)[C@H]2NC(=O)O[C@@]21C [Compound 109] | 8 (≈ 9.82 µM) | 16 (≈ 19.6 µM) | >16 | 2 (≈ 2.45 µM) | 0.25 µg/mL (≈ 0.307 µM) |
| CC[C@H]1OC(=O)[C@H](C)C(=O)[C@H](C)[C@@H](O[C@@H]2O[C@H](C)C[C@H](N(C)C)[C@H]2O)[C@](C)(OC(=O)NCCN)C[C@@H](C)C(=O)[C@H](C)[C@H]2NC(=O)O[C@@]21C [Compound 110] | 16 (≈ 23.4 µM) | 16 (≈ 23.4 µM) | >16 | 8 (≈ 11.7 µM) | 1 µg/mL (≈ 1.46 µM) |
| CC[C@H]1OC(=O)[C@H](C)C(=O)[C@H](C)[C@@H](O[C@@H]2O[C@H](C)C[C@H](N(C)C)[C@H]2O)[C@](C)(OC(=O)NCCNC(=O)c2ccc(-c3ccccc3)cc2)C[C@@H](C)C(=O)[C@H](C)[C@H]2NC(=O)O[C@@]21C [Compound 111] | 1 (≈ 1.16 µM) | 4 (≈ 4.62 µM) | >16 | 0.5 (≈ 0.578 µM) | 0.06 µg/mL (≈ 0.0694 µM) |
| CC[C@H]1OC(=O)[C@H](C)C(=O)[C@H](C)[C@@H](O[C@@H]2O[C@H](C)C[C@H](N(C)C)[C@H]2O)[C@](C)(OC(=O)NCCNC(=O)c2cccnc2)C[C@@H](C)C(=O)[C@H](C)[C@H]2NC(=O)O[C@@]21C [Compound 112] | 16 (≈ 20.3 µM) | 16 (≈ 20.3 µM) | >16 | 2 (≈ 2.53 µM) | 0.5 µg/mL (≈ 0.633 µM) |
| CC[C@H]1OC(=O)[C@H](C)C(=O)[C@H](C)[C@@H](O[C@@H]2O[C@H](C)C[C@H](N(C)C)[C@H]2O)[C@](C)(OC(=O)NCCNC(=O)c2cnc3ccccc3c2)C[C@@H](C)C(=O)[C@H](C)[C@H]2NC(=O)O[C@@]21C [Compound 113] | 4 (≈ 4.76 µM) | 8 (≈ 9.52 µM) | >16 | 1 (≈ 1.19 µM) | 0.06 µg/mL (≈ 0.0714 µM) |
| CC[C@H]1OC(=O)[C@H](C)C(=O)[C@H](C)[C@@H](O[C@@H]2O[C@H](C)C[C@H](N(C)C)[C@H]2O)[C@](C)(OC(=O)NCCNCc2cnc3ccccc3c2)C[C@@H](C)C(=O)[C@H](C)[C@H]2NC(=O)O[C@@]21C [Compound 114] | 2 (≈ 2.42 µM) | 4 (≈ 4.84 µM) | >16 | 0.25 (≈ 0.303 µM) | 0.06 µg/mL (≈ 0.0726 µM) |
| CC[C@H]1OC(=O)[C@H](C)C(=O)[C@H](C)[C@@H](O[C@@H]2O[C@H](C)C[C@H](N(C)C)[C@H]2O)[C@](C)(OC(=O)NCCNCc2ccc(-c3ncccn3)cc2)C[C@@H](C)C(=O)[C@H](C)[C@H]2NC(=O)O[C@@]21C [Compound 115] | 2 (≈ 2.34 µM) | 16 (≈ 18.8 µM) | >16 | 0.5 (≈ 0.586 µM) | 0.06 µg/mL (≈ 0.0703 µM) |
| CC[C@H]1OC(=O)[C@H](C)C(=O)[C@H](C)[C@@H](O[C@@H]2O[C@H](C)C[C@H](N(C)C)[C@H]2O)[C@](C)(OC(=O)NCCNCc2cccnc2)C[C@@H](C)C(=O)[C@H](C)[C@H]2NC(=O)O[C@@]21C [Compound 116] | 2 (≈ 2.58 µM) | 8 (≈ 10.3 µM) | >16 | 1 (≈ 1.29 µM) | 0.12 µg/mL (≈ 0.155 µM) |
| CC[C@H]1OC(=O)[C@H](C)C(=O)[C@H](C)[C@@H](O[C@@H]2O[C@H](C)C[C@H](N(C)C)[C@H]2O)[C@](C)(OC(=O)NCCN(C)Cc2ccc(-c3ncccn3)cc2)C[C@@H](C)C(=O)[C@H](C)[C@H]2NC(=O)O[C@@]21C [Compound 117] | 2 (≈ 2.31 µM) | >16 | >16 | 0.5 (≈ 0.577 µM) | 0.06 µg/mL (≈ 0.0692 µM) |
| CC[C@H]1OC(=O)[C@H](C)C(=O)[C@H](C)[C@@H](O[C@@H]2O[C@H](C)C[C@H](N(C)C)[C@H]2O)[C@](C)(OC(=O)NCCN(C)Cc2cccnc2)C[C@@H](C)C(=O)[C@H](C)[C@H]2NC(=O)O[C@@]21C [Compound 118] | 8 (≈ 10.1 µM) | 16 (≈ 20.3 µM) | >16 | 1 (≈ 1.27 µM) | 0.12 µg/mL (≈ 0.152 µM) |
| CC[C@H]1OC(=O)[C@H](C)C(=O)[C@H](C)[C@@H](O[C@@H]2O[C@H](C)C[C@H](N(C)C)[C@H]2O)[C@](C)(OC(=O)NCCN(C)Cc2cnc3ccccc3c2)C[C@@H](C)C(=O)[C@H](C)[C@H]2NC(=O)O[C@@]21C [Compound 119] | 4 (≈ 4.76 µM) | 8 (≈ 9.52 µM) | >16 | 0.25 (≈ 0.298 µM) | 0.06 µg/mL (≈ 0.0714 µM) |
| CCC1OC(=O)C(C)(F)C(=O)C(C)C(OC2OC(C)CC(N(C)C)C2O)C(C)(OC(=O)NCC=Cc2ccc(-c3ncccn3)cc2)CC(C)C(=NO)C(C)C2NC(=O)OC12C (stereo not shown) [Compound 123] | 0.25 (≈ 0.288 µM) | 4 (≈ 4.6 µM) | 16 (≈ 18.4 µM) | 0.12 (≈ 0.138 µM) | 0.03 µg/mL (≈ 0.0345 µM) |
| CCC1OC(=O)C(C)(F)C(=O)C(C)C(OC2OC(C)CC(N(C)C)C2O)C(C)(OC(=O)NCC=Cc2cn(-c3ncccn3)cn2)CC(C)C(=NO)C(C)C2NC(=O)OC12C (stereo not shown) [Compound 124] | 0.25 (≈ 0.291 µM) | 4 (≈ 4.66 µM) | 16 (≈ 18.6 µM) | 0.12 (≈ 0.14 µM) | 0.03 µg/mL (≈ 0.0349 µM) |
| CCC1OC(=O)C(C)(F)C(=O)C(C)C(OC2OC(C)CC(N(C)C)C2O)C(C)(OC(=O)NCC=Cc2ccc(-c3cccnn3)cc2)CC(C)C(=NO)C(C)C2NC(=O)OC12C (stereo not shown) [Compound 125] | 0.5 (≈ 0.575 µM) | 2 (≈ 2.3 µM) | 16 (≈ 18.4 µM) | 0.25 (≈ 0.288 µM) | 0.06 µg/mL (≈ 0.069 µM) |
| CCC1OC(=O)C(C)(F)C(=O)C(C)C(OC2OC(C)CC(N(C)C)C2O)C(C)(OC(=O)NCC=Cc2cnc3ccccc3c2)CC(C)C(=NO)C(C)C2NC(=O)OC12C (stereo not shown) [Compound 127] | 0.25 (≈ 0.297 µM) | 2 (≈ 2.38 µM) | 8 (≈ 9.5 µM) | 0.12 (≈ 0.143 µM) | 0.03 µg/mL (≈ 0.0356 µM) |
| CCC1OC(=O)C(C)(F)C(=O)C(C)C(OC2OC(C)CC(N(C)C)C2O)C(C)(OC(=O)NCc2ccc(-c3ncccn3)cc2)CC(C)C(=NO)C(C)C2NC(=O)OC12C (stereo not shown) [Compound 128] | 4 (≈ 4.75 µM) | 8 (≈ 9.49 µM) | >16 | 2 (≈ 2.37 µM) | 0.25 µg/mL (≈ 0.297 µM) |
| CCC1OC(=O)C(C)(F)C(=O)C(C)C(OC2OC(C)CC(N(C)C)C2O)C(C)(OC(=O)NCC=Cc2ccccc2)CC(C)C(=NO)C(C)C2NC(=O)OC12C (stereo not shown) [Compound 129] | 0.25 (≈ 0.316 µM) | 1 (≈ 1.26 µM) | 8 (≈ 10.1 µM) | 0.12 (≈ 0.152 µM) | 0.03 µg/mL (≈ 0.0379 µM) |
| CCC1OC(=O)C(C)(F)C(=O)C(C)C(OC2OC(C)CC(N(C)C)C2O)C(C)(OC(=O)NCC=Cc2ccnc(Br)c2)CC(C)C(=NO)C(C)C2NC(=O)OC12C (stereo not shown) [Compound 130] | 0.25 (≈ 0.287 µM) | 0.5 (≈ 0.574 µM) | 8 (≈ 9.19 µM) | 0.12 (≈ 0.138 µM) | ≦0.015 μg/mL |
| CC[C@H]1OC(=O)[C@H](C)C(=O)[C@H](C)[C@@H](O[C@@H]2O[C@H](C)C[C@H](N(C)C)[C@H]2O)[C@](C)(OC(=O)NC/C=C/c2ccc(-c3ncccn3)cc2)C[C@@H](C)C(=NO)[C@H](C)[C@H]2NC(=O)O[C@@]21C [Compound 133] | 0.25 (≈ 0.294 µM) | 2 (≈ 2.35 µM) | 16 (≈ 18.8 µM) | 0.25 (≈ 0.294 µM) | 0.03 µg/mL (≈ 0.0353 µM) |
| CCC1OC(=O)C(C)C(=NOC)C(C)C(OC2OC(C)CC(N(C)C)C2O)C(C)(OC(=O)NCC=Cc2ccc(-c3ncccn3)cc2)CC(C)C(=NOC)C(C)C2NC(=O)OC12C (stereo not shown) [Compound 134] | 2 (≈ 2.24 µM) | >16 | >16 | 1 (≈ 1.12 µM) | 0.12 µg/mL (≈ 0.134 µM) |
| CC[C@H]1OC(=O)[C@H](C)C(=O)[C@H](C)[C@@H](O[C@@H]2O[C@H](C)C[C@H](N(C)C)[C@H]2O)[C@](C)(OC(=O)NCC2CC(c3ccc(-c4ncccn4)cc3)C2)C[C@@H](C)C(=O)[C@H](C)[C@H]2NC(=O)O[C@@]21C (stereo partly shown) [Compound 135] | 4 (≈ 4.63 µM) | >16 | >16 | 2 (≈ 2.31 µM) | 0.5 µg/mL (≈ 0.579 µM) |
| CC[C@H]1OC(=O)[C@H](C)C(=O)[C@H](C)[C@@H](O[C@@H]2O[C@H](C)C[C@H](N(C)C)[C@H]2O)[C@](C)(OC(=O)N2CCC(c3ccccc3)CC2)C[C@@H](C)C(=O)[C@H](C)[C@H]2NC(=O)O[C@@]21C [Compound 137] | 4 (≈ 5.09 µM) | 8 (≈ 10.2 µM) | >16 | 1 (≈ 1.27 µM) | 0.25 µg/mL (≈ 0.318 µM) |
| CC[C@H]1OC(=O)[C@H](C)C(=O)[C@H](C)[C@@H](O[C@@H]2O[C@H](C)C[C@H](N(C)C)[C@H]2O)[C@](C)(OC(=O)N2Cc3ccccc3C2)C[C@@H](C)C(=O)[C@H](C)[C@H]2NC(=O)O[C@@]21C [Compound 138] | 16 (≈ 21.5 µM) | 8 (≈ 10.8 µM) | >16 | 2 (≈ 2.69 µM) | 0.5 µg/mL (≈ 0.672 µM) |
